Reference: patent US12329850B2, “Microalgae having high loliolide productivity” (KOREA RESEARCH INSTITUTE OF BIOSCIENCE AND BIOTECHNOLOGY, priority 2019, dated 2025)

Assays:
Assay type in all cases: cell-based
MMP1 gene = assay: qRT-PCR, expression of collagenase gene in UVB-irradiated human dermal fibroblasts; details: 24 hours, UVB-only control 2.4-fold increase
Description: (§1) First, human dermal fibroblasts cultured in the same manner as in Example 6 were dispensed in a 96-well plate in an amount of 4×10^3 cells/well, and UVB was irradiated to the medium at 10 mJ/cm^2. […] Thereafter, the changes in expression levels of the ColA1 gene and the MMP1 gene were measured through quantitative real time-PCR (qRT-PCR). During this process, SYBR green I (Invitrogen), which is a fluorescent material, was used to examine the amount of the DNA product amplified by PCR in real time. Specifically, 0.2 μM of the primers prepared with the sequences shown in Table 3 below were added to a PCR tube, and mixed with 50 mM KCl, 20 mM Tris/HCl (pH 8.4), 0.8 mM dNTP, 0.5 U DNA polymerase (Extaq DNA polymerase), 3 mM MgCl2 and 1×SYBR Green I so as to prepare a reaction solution. Then, PCR was performed using a PCR device (Linegene K, BioER, China)(PCR conditions: primary denaturation for 3 minutes, denaturation at 94° C. for 30 seconds, annealing at 58° C. for 30 seconds, and polymerization at 72° C. for 30 seconds, a total of 40 cycles), and the fluorescence intensity was measured for each cycle.

ColA1 gene = assay: qRT-PCR, expression of collagen gene in UVB-irradiated human dermal fibroblasts; details: 24 hours, UVB-only control 30%
Description: as §1

[1] = tested on: human dermal fibroblasts (HDFs); assay: WST-1 assay, cytotoxicity of loliolide on human dermal fibroblasts; details: loliolide up to 20 μg/mL, 24 hours
Description: The purification of loliolide was performed in the same manner as in Example 3, and an extract was obtained using ethyl acetate from a lyophilized culture of the Scenedesmus sp. HS4 microalgae of the present invention, and loliolide was purified through fractionation/concentration. In the case of culturing human dermal cells, human dermal fibroblasts purchased from Lonza (Basel, Switzerland) were cultured in a 5% CO2 cell incubator at 37° C. using a medium in which 10% fetal bovine serum (FBS, 51480, Biowest, France) was further added to Dulbecco's modified Eagle's medium (DMEM medium, L0103-500, Biowest, France).
First, whether loliolide has cytotoxicity against human dermal fibroblasts was confirmed through WST-1 assay. After dispensing the cultured human dermal fibroblasts into a 96-well plate at 4×10^3 cells/well and culturing for 24 hours, the loliolide purified from Scenedesmus sp. HS4 microalgae was treated at concentrations of 0 μg/mL, 2 μg/mL, 5 μg/mL, 10 μg/mL, and 20 μg/mL, respectively. After 24 hours have elapsed after the loliolide treatment, the solution was treated in the medium using a WST-1 assay kit (EZ-cytox cell viability kit, Itshio, Korea), the absorbance was measured at a wavelength of 450 nm with a microplate reader (iMark microplate reader, Bio-Rad, USA).

[2] = tested on: human dermal fibroblasts irradiated with UVB; assay: WST-1 assay, cell viability recovery in UVB-irradiated human dermal fibroblasts; details: loliolide 2 μg/mL for 6 hours, then UVB 10 mJ/cm^2, 24 hours
Description: Human dermal fibroblasts cultured in the same manner as in Example 6 were dispensed in a 96-well plate by 4×10^3 cells/well, and loliolide was treated at concentrations of 2 μg/mL, 5 μg/mL, 10 μg/mL, and 20 μg/mL for 6 hours. Then, the medium was irradiated with UVB at 10 mJ/cm^2 and cultured further for 24 hours, and cell viability was measured by performing a WST-1 assay in the same manner as in Example 6.

[3] = UVB 10 mJ/cm^2, then loliolide 5 μg/mL
[4] = UVB 10 mJ/cm^2, then loliolide 10 μg/mL

CC1(C)C[C@H](O)C[C@@]2(C)OC(=O)C=C12 [loliolide]
expression level of MMP1 gene (MMP1 gene; [3]): 25% | expression level of MMP1 gene (MMP1 gene; [4]): 46% | expression level of ColA1 gene, based on cells without any treatment (ColA1 gene; [3]): 55% | expression level of ColA1 gene, based on cells without any treatment (ColA1 gene; [4]): 65% | toxicity to human dermal fibroblasts (relative viability vs untreated control) [1]: not toxic | cell viability compared to the UVB control group [2]: significantly increased
